Measured values taken from US11986506B2, “Dietary supplements for inhibiting PDE5 and increasing cGMP levels” (LAILA NUTRACEUTICALS, priority 2017, dated 2024).
Counter-ions that a name gives are not always drawn.

Assays:
cyclic GMP = assay: Plasma cyclic GMP estimation by ELISA after mating period; format: in vivo, Sprague Dawley rats; settings: 10 mg/kg oral, plasma after 30 minutes mating period
Procedure: After 30 minutes of mating period, blood sample were collected from all animals, plasma separated and subjected to cyclic-GMP estimation using cyclic GMP ELISA Kit supplied by Cayman (Cat No 581022) as per the procedure provided by the manufacturer. The plasma cyclic GMP modulation data is summarized in Table 8 and depicted in FIG. 2.
After 30 minutes of mating period, blood sample was collected from each animal, plasma separated and the cyclic-GMP content was estimated using cyclic GMP ELISA Kit supplied by Cayman (Cat No 581022) as per the procedure provided by the manufacturer.

male rats = assay: Stimulation of sexual behaviour in male rats (pre-copulatory and copulatory counts over 30 minutes); format: in vivo, Sprague Dawley rats; settings: 10 mg/kg oral
Procedure: The extracts of the current invention were then evaluated for their efficacy in vivo to stimulate sexual behavior in male rats. Briefly, healthy Sprague Dawley rats were acclimatized and randomized into various treatment groups (G1 to G6) as summarized in table 5. These animals were introduced to mating with female counterparts, which were previously treated with 100 μg/rat of estradiol benzoate and 1 mg/rat of progesterone at approximately 48 hours and 4 hours respectively prior to mating. […] The scored test parameters include frequency of licking, anogenital sniffing, climbing, genital grooming, mounting and intromission.
Separately, a set of 42 healthy female rats were selected and each of them were treated with single dose of 100 μg of estradiol benzoate and 1 mg of progesterone at approximately 48 hours and 4 hours respectively prior to introduction to mating.
One hour after test substance administration, each male rat was allowed to mate with a female rat in oestrus phase. Male sexual behaviour was measured for a period of 30 minutes with the aid of video recording. The scored test parameters include frequency of licking, anogenital sniffing, climbing, genital grooming, mounting, intromission and the results are summarized in tables 6 and 7, and depicted in FIG. 1.

CCCc1nn(C)c2c(=O)[nH]c(-c3cc(S(=O)(=O)N4CCN(C)CC4)ccc3OCC)nc12 [Sildenafil citrate]
Cyclic GMP levels (plasma) (cyclic GMP): 18.79 ± 1.65 pmol/mL | Cyclic GMP levels (plasma) (cyclic GMP; listed as sildenafil citrate): 18.79 pmol/mL | Climbing count Mean ± SE (male rats): 13.50 ± 2.96 | Genital grooming count Mean ± SE (male rats): 15.33 ± 9.20 | Intromission frequency Mean ± SE (male rats): 3.67 ± 2.55 | Mounting count Mean ± SE (male rats): 5.50 ± 2.43 | Sniffing count Mean ± SE (male rats): 25.83 ± 8.55 | Licking count Mean ± SE (male rats; 1 hr before mating, 30 minutes): 14.83 ± 11.32
